Where two headings read alike, the source gives them in different places.
Legend:
serotonin (5-HT) release = experiment: Serotonin (5-HT) release; details: data on file
[1] = tested on: dopamine transporter (DAT) / serotonin transporter (SERT); details: cited from earlier work
5-HT2A receptor = 5-HT2A receptor (Homo sapiens, UniProt P28223)
[2] = cited from earlier work; for Tmax (plasma): after administration of 125 mg MDMA to healthy subjects; for elimination half-life: human plasma
healthy subjects [3] = details: cited from earlier work; for duration of self-reported effects: MDA 1.4 mg/kg orally, indirect comparison with MDMA from different subjects and studies
[4] = receptor studies and limited pre-clinical evidence; cited from earlier work
humans = details: cited from earlier work
healthy subjects [5] = details: cited from earlier work
[6] = relative dopamine over serotonin transporter inhibition potency ratio, literature values
[7] = vs d-amphetamine, equivalent doses

Chain of 5-HT2A receptor (P28223 whole entry): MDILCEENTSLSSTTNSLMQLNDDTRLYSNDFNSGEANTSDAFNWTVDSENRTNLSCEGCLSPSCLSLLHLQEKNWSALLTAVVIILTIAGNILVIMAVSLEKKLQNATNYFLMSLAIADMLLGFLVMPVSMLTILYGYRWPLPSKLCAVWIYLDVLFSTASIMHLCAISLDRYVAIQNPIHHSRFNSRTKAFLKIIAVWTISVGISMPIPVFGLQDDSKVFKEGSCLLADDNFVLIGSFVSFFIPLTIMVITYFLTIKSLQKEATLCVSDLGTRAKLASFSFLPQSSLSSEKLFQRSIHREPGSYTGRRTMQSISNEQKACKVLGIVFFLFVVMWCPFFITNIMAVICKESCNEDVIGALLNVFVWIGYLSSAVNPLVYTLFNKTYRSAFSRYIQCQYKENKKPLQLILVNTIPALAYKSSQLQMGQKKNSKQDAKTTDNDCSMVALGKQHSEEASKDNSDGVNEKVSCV

Q: For `CC(N)Cc1ccc2c(c1F)OCO2` (stereo not shown) [2F-MDA], which 5-HT release (serotonin (5-HT) release) is on record?
A: release 5-HT

Q: For `CC(N)Cc1ccc2occc2c1` (stereo not shown) [5-APB, 5-(2-aminopropyl)-benzofuran], which DAT/SERT ratio [1, 6] is on record?
A: 0.05

Q: For `CC(N)Cc1cc(F)c2c(c1)OCO2` (stereo not shown) [5F-MDA], which 5-HT release (serotonin (5-HT) release) is on record?
A: release 5-HT

Q: For `CC(N)Cc1ccc2ccoc2c1` (stereo not shown) [6-APB, 6-(2-aminopropyl)-benzofuran], which DAT/SERT ratio [1, 6] is on record?
A: 0.29

Q: For `CC(N)Cc1cc2c(cc1F)OCO2` (stereo not shown) [6F-MDA], which 5-HT release (serotonin (5-HT) release) is on record?
A: release 5-HT

Q: With `CCC(N)Cc1ccc2c(c1)OCO2` (stereo not shown) [BDB, 1-(1,3-benzodioxol-5-yl)-2-aminobutane] as the molecule, how does the 5-HT release (serotonin (5-HT) release) read?
A: release 5-HT

Q: Which DAT/SERT ratio [1, 6] does the source give for `CCC(Cc1ccc2c(c1)OCO2)NC` (stereo not shown) [MBDB, 1-(1,3-benzodioxol-5-yl)-methyl-2-butanamine] here?
A: 0.09

Q: With `CC(N)Cc1ccc2c(c1)OCO2` (stereo not shown) [MDA, 3,4-methylenedioxyamphetamine] as the molecule, how does the DAT/SERT ratio [1] read?
A: 0.24

Q: What about the EC50 (5-HT2A receptor; read-out: EC50 of 5-HT2A receptor activation; Rickli et al., 2015b; cited from earlier work) of the same molecule?
A: 0.63 µM

Q: And the Tmax (plasma) [2]?
A: 4.7 h

Q: What about the “Peak plasma concentration of MDA relative to that of MDMA” value ([2]; after administration of MDMA) of the same molecule?
A: 7-10%

Q: What about the elimination half-life [2] of the same molecule?
A: 10 to 16 h

Q: What about the “duration of self-reported effects” value (healthy subjects [3]) of the same molecule?
A: up to 8 hours

Q: And the “perceptual changes on the 5-Dimensions of Altered States of Consciousness Scale” value (healthy subjects [3]; MDA vs MDMA, indirect comparison)?
A: greater perceptual changes than MDMA

Q: For `NC1Cc2cc3c(cc2C1)OCO3` [MDAI, 5,6-methylenedioxy-2-aminoindane], which DAT/SERT ratio [1] is on record?
A: 0.2

Q: Which DAT/SERT ratio [1] does the source give for `CNC(C)Cc1ccc2c(c1)OCO2` (stereo not shown) [MDMA, 3,4-Methylenedioxymethamphetamine] here?
A: 0.08

Q: What about the EC50 (5-HT2A receptor; Rickli et al., 2015b; read-out: EC50 of 5-HT2A receptor activation; cited from earlier work) of the same molecule?
A: 6.1 µM

Q: And the Tmax (plasma) [2]?
A: 2.6 h

Q: What about the elimination half-life [2] of the same molecule?
A: 7 to 10 h

Q: What about the “duration of self-reported effects” value (healthy subjects [3]) of the same molecule?
A: ≤ 6 h

Q: What does the source list for `CN[C@H](C)Cc1ccc2c(c1)OCO2` [R(-)-MDMA]?
A: efficacy as a releaser of dopamine [4]: low efficacy; hyperthermia [4]: does not produce hyperthermia

Q: For `C[C@@H](Cc1ccccc1)NC(=O)[C@@H](N)CCCCN` [lisdexamfetamine], which blood pressure increase (humans; 100 mg lisdexamfetamine oral vs d-amphetamine, FIG. 9) is on record?
A: increased more slowly and later

Q: What about the ratings of liking (humans; oral, vs equivalent dose of d-amphetamine, FIG. 8) of the same molecule?
A: lower

Q: And the “maximal effect (Emax) or area under the effect-time curve (AUEC)” value (healthy subjects [5]; lisdexamfetamine vs d-amphetamine)?
A: no differences

Q: And the “maximal concentrations of amphetamine” value (healthy subjects [5]; [7])?
A: no differences

Q: And the “onset and peak times of the amphetamine concentration-time curve” value (healthy subjects [5]; [7])?
A: longer

Q: What about the “Tonset of blood pressure-time curve” value (healthy subjects [5]; vs d-amphetamine) of the same molecule?
A: significantly longer
